Measured values taken from patent US7132252B2, “Methods for detecting the interaction of compounds with cytochrome P450 using optical molecular sensors” (Invitrogen Corporation, priority 1998, dated 2006).
“And” between values parts separate entries of the source, which are not always exact repeats. Equal values may be shown once. Values belong to the compound of their own block, whether it stands above or below them.

Legend:
CYP3A4 [1] = target: T1, CYP3A4 (Homo sapiens, UniProt P08684); test: Kinetic properties of fluorogenic substrates with CYP 3A4; type: biochemical; conditions: for v (1.25 uM): turnover rate at 1.25 uM substrate; for v (1.25 uM) / v (10 uM): — = too low to quantify; for v (10 uM): turnover rate at 10 uM substrate
From the text: For further understanding these terms in the context of this invention, attention is directed to FIG. 4 and the analysis of FIG. 4.
(§1) (respectively, MFC and MR).

CYP2C19 = CYP2C19 (Homo sapiens, UniProt P33261); test: Kinetic properties of fluorogenic substrates with CYP 2C19; type: biochemical; conditions: for v (1.25 uM): turnover rate at 1.25 uM substrate; for v (1.25 uM) / v (10 uM): — = too low to quantify; for v (10 uM): turnover rate at 10 uM substrate
CYP2C9 = CYP2C9 (Homo sapiens, UniProt P11712); test: Kinetic properties of fluorogenic substrates with CYP 2C9; type: biochemical; conditions: for v (1.25 uM): turnover rate at 1.25 uM substrate; for v (1.25 uM) / v (10 uM) / Km / kcat: — = too low to quantify; for v (10 uM): turnover rate at 10 uM substrate
CYP 2B6 = target: T2, CYP 2B6 (Homo sapiens, UniProt P20813); test: Kinetic properties of fluorogenic substrates with CYP 2B6; type: biochemical; conditions: for v (1.25 uM): turnover rate at 1.25 uM substrate; for v (1.25 uM) / v (10 uM) / Km / kcat: — = too low to quantify; for v (10 uM): turnover rate at 10 uM substrate
T2 sequence (P20813 1-491): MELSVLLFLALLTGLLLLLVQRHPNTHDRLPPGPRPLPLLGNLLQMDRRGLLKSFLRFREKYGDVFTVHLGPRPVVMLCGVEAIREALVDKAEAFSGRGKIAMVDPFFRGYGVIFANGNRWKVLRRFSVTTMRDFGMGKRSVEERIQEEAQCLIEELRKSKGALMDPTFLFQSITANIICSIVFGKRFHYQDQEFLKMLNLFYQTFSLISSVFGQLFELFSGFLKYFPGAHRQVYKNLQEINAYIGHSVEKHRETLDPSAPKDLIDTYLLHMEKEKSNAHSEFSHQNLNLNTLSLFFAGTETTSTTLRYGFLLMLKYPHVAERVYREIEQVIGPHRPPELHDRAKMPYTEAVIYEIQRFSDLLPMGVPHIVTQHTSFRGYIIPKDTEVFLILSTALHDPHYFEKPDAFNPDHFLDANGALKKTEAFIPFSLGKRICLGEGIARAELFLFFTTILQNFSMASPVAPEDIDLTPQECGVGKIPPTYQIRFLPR

CYP2D6 = CYP2D6 (Homo sapiens, UniProt P10635); test: Kinetic properties of fluorogenic substrates with CYP 2D6; type: biochemical; conditions: for v (1.25 uM): turnover rate at 1.25 uM substrate; for v (10 uM): turnover rate at 10 uM substrate
From the text: as §1

CYP3A4 [2] = target: T1, CYP3A4; test: in vitro; conditions: pH 8, % inhibition; for inhibition at 20 min, 10 µM: Condition A; for inhibition at 40 min, 10 µM: Condition B
CYP 1A2 = target: T3, CYP 1A2 (Homo sapiens, UniProt P05177); test: Kinetic properties of fluorogenic substrates with CYP 1A2; type: biochemical
T3 sequence (P05177 1-516): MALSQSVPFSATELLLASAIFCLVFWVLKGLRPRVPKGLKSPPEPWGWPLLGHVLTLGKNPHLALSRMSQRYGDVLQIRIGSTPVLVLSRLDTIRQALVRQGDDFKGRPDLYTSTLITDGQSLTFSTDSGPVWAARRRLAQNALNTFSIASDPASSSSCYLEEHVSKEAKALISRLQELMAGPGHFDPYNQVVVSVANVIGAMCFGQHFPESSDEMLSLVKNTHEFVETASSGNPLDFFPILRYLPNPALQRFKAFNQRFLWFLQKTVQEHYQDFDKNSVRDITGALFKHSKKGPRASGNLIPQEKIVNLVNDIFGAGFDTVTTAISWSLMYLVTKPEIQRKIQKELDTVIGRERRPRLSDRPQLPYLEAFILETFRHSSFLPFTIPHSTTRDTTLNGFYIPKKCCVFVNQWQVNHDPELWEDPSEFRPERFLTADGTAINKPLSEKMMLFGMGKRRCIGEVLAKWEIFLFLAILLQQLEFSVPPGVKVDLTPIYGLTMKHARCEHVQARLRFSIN

Chain of CYP2C19 (P33261 whole entry): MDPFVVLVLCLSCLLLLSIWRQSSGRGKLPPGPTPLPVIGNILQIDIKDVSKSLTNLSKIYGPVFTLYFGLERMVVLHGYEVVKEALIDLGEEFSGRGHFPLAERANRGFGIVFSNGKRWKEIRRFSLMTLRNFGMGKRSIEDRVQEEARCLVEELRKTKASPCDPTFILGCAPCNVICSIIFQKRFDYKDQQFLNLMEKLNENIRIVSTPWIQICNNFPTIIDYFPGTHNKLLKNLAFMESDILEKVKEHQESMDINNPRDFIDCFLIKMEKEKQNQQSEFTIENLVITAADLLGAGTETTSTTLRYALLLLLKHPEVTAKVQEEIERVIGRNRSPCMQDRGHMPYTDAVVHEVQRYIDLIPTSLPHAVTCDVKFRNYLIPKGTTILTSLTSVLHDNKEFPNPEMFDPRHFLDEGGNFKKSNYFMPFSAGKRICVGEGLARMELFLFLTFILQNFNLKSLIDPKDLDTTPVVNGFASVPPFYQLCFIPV
Chain of CYP2C9 (P11712 whole entry): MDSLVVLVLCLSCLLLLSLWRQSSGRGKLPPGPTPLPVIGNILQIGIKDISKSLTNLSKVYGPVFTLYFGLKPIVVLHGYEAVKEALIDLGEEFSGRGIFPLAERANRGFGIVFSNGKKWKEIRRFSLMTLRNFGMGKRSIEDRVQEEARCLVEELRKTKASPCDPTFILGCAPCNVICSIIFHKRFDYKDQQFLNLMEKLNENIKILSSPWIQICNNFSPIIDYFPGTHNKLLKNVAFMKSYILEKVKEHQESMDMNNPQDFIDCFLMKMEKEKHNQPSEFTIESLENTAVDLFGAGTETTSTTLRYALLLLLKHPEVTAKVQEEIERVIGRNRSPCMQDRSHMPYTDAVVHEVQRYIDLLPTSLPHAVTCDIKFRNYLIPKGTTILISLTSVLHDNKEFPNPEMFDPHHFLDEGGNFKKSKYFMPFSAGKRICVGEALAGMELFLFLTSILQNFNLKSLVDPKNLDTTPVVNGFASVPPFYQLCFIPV
Chain of CYP2D6 (P10635 whole entry): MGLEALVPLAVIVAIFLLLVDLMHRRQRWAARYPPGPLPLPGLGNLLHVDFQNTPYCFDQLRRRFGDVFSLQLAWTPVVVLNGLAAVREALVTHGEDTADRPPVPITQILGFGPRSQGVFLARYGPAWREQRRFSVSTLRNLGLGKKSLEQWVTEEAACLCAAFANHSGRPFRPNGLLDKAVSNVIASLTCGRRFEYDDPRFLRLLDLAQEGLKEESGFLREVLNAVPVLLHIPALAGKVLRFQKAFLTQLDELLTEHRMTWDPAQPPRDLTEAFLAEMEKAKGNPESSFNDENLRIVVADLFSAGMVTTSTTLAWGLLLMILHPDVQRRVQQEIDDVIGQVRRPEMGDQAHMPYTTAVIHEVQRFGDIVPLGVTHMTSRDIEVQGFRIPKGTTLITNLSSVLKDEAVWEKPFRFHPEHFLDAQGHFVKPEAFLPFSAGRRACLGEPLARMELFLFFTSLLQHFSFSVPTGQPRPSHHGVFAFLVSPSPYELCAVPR
T1 sequence (P08684 whole entry): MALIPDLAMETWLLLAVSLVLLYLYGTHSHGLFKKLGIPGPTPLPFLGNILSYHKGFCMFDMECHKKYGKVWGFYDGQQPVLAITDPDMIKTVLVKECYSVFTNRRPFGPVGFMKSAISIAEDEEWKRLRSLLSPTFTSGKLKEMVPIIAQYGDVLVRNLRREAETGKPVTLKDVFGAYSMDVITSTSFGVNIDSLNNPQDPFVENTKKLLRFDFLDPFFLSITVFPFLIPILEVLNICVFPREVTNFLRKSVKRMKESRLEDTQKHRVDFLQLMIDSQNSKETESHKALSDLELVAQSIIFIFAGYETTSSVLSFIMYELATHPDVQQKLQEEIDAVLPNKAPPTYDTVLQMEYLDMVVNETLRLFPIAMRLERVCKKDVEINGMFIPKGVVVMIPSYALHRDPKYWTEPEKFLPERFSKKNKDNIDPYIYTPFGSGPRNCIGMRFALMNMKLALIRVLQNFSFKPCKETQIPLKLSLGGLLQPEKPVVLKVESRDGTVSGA

Compound: O=C(OCc1ccccc1)c1c2oc3cc(OCc4ccccc4)ccc3nc-2ccc1=O [BRCBE]
- v (1.25 uM) (CYP3A4 [1]): 0.1992 min⁻¹
- v (10 uM) (CYP3A4 [1]): 0.6241 min⁻¹

Compound: 7-Methoxy-4-trifluoromethylcoumarin [MFC, reference compound]
- type of kinetics (CYP2C9): Michaelis-Menten
- v (1.25 uM) (CYP2C9): 0.01 min⁻¹
- v (10 uM) (CYP2C9): 0.03 min⁻¹
- Km (CYP2C9): 103 µM
- kcat (CYP2C9): 0.0067 s⁻¹
- type of kinetics (CYP 2B6): Michaelis-Menten
- v (1.25 uM) (CYP 2B6): 1.63 min⁻¹
- v (10 uM) (CYP 2B6): 2.53 min⁻¹
- Km (CYP 2B6): 1.4 µM
- kcat (CYP 2B6): 0.0483 s⁻¹
- type of kinetics (CYP2D6): Michaelis-Menten
- v (1.25 uM) (CYP2D6; — = too low to quantify): 0.03 min⁻¹
- v (10 uM) (CYP2D6; — = too low to quantify): 0.10 min⁻¹
- Km (CYP2D6; — = too low to quantify): 10 µM
- kcat (CYP2D6; — = too low to quantify): 0.005 s⁻¹

Compound: CCN(CC)Cc1cc(=O)oc2cc(OC)ccc12 [DMMC]
- v (1.25 uM) (CYP2C19): 0.03 min⁻¹
- v (10 uM) (CYP2C19): 0.23 min⁻¹

Compound: O=c1cc(C(F)(F)F)c2ccc(OCc3ccccc3)cc2o1 [BFC, 7-Benzyloxy-4-trifluoromethylcoumarin, reference compound]
- type of kinetics (CYP3A4 [1]): linear
- v (1.25 uM) (CYP3A4 [1]): 0.04 min⁻¹
- v (10 uM) (CYP3A4 [1]): 0.81 min⁻¹

Compound: CC(C)Oc1ccc2cc(C#N)c(=O)oc2c1 [IPCC]
- v (1.25 uM) (CYP2C19): 0.027 min⁻¹
- v (10 uM) (CYP2C19): 0.232 min⁻¹
- v (1.25 uM) (CYP2D6; — = too low to quantify): 0.0076 min⁻¹
- v (10 uM) (CYP2D6; — = too low to quantify): 0.0378 min⁻¹

Compound: N#Cc1cc2ccc(OCc3ccccc3)cc2oc1=O [BCC, 7-Benzyloxy-3-cyanocoumarin, reference compound]
- type of kinetics (CYP2C19): Michaelis-Menten
- v (1.25 uM) (CYP2C19): 0.02 min⁻¹
- v (10 uM) (CYP2C19): 0.06 min⁻¹
- v (1.25 uM) (CYP2C9): 0.00 min⁻¹
- v (10 uM) (CYP2C9): 0.00 min⁻¹
- type of kinetics (CYP 2B6): Michaelis-Menten
- Km (CYP 2B6; human, CYP 2B6 isozyme): 1.3 µM
- v (1.25 uM) (CYP 2B6): 0.04 min⁻¹
- v (10 uM) (CYP 2B6): 0.07 min⁻¹
- kcat (CYP 2B6): 0.0017 s⁻¹

Compound: CC1(C)C2=C(Cl)C(=O)C(Cl)=CC2=Nc2ccc(OCOCc3ccccc3)cc21 [BOM-DDAO]
- v (1.25 uM) (CYP3A4 [1]): 0.4402 min⁻¹
- v (10 uM) (CYP3A4 [1]): 4.2041 min⁻¹

Compound: NNC(=O)c1ccncc1 [Isoniazid]
- inhibition at 20 min, 10 µM (CYP3A4 [2]; substrate BOMCC): 59%
- inhibition at 40 min, 10 µM (CYP3A4 [2]; substrate BOMCC): 48%
- inhibition at 20 min, 10 µM (CYP3A4 [2]; substrate BOMR): -8%
- inhibition at 40 min, 10 µM (CYP3A4 [2]; substrate BOMR): 30%
- inhibition at 20 min, 10 µM (CYP3A4 [2]; substrate DBOMF): -9%
- inhibition at 40 min, 10 µM (CYP3A4 [2]; substrate DBOMF): 3%

Compound: CCOc1ccc2cc(C#N)c(=O)oc2c1 [3CEC, 3-Cyano-7-ethoxycoumarin, reference compound]
- type of kinetics (CYP2C19): Michaelis-Menten
- v (1.25 uM) (CYP2C19): 0.05 min⁻¹
- v (10 uM) (CYP2C19): 0.34 min⁻¹
- type of kinetics (CYP 1A2): Michaelis-Menten
- v (1.25 uM) (CYP 1A2; turnover rate at 1.25 uM substrate): 1.73 min⁻¹
- v (10 uM) (CYP 1A2; turnover rate at 10 uM substrate): 12.55 min⁻¹

Compound: COc1ccc(COc2ccc3nc4ccc(=O)cc-4oc3c2)cc1 [MOBR, Paramethoxybenzylresorufin]
- type of kinetics (CYP2C19): not MMK
- v (1.25 uM) (CYP2C19): 1.26 min⁻¹
- v (10 uM) (CYP2C19): 0.69 min⁻¹
- type of kinetics (CYP2C9): Michaelis-Menten
- v (1.25 uM) (CYP2C9): 0.02 min⁻¹
- v (10 uM) (CYP2C9): 0.02 min⁻¹
- type of kinetics (CYP 2B6): Michaelis-Menten
- Km (CYP 2B6; human, CYP 2B6 isozyme): 0.01 µM
- v (1.25 uM) (CYP 2B6): 0.08 min⁻¹
- v (10 uM) (CYP 2B6): 0.10 min⁻¹
- kcat (CYP 2B6): 0.0067 s⁻¹
- type of kinetics (CYP2D6): Michaelis-Menten
- v (1.25 uM) (CYP2D6; — = too low to quantify): 0.0185 min⁻¹ and 0.02 min⁻¹
- v (10 uM) (CYP2D6; — = too low to quantify): 0.0409 min⁻¹ and 0.04 min⁻¹

Compound: CCOCOc1ccc2nc3ccc(=O)cc-3oc2c1 [EOMR]
- type of kinetics (CYP3A4 [1]): Michaelis-Menten
- v (1.25 uM) (CYP3A4 [1]): 0.03 min⁻¹
- v (10 uM) (CYP3A4 [1]): 0.10 min⁻¹

Compound: COc1ccc2cc(C#N)c(=O)oc2c1 [3CMC, 3-cyano-7-methoxycoumarin, reference compound]
- type of kinetics (CYP2C19): linear
- v (1.25 uM) (CYP2C19): 0.01 min⁻¹
- v (10 uM) (CYP2C19): 0.07 min⁻¹
- type of kinetics (CYP2C9): linear
- v (1.25 uM) (CYP2C9): 0.00 min⁻¹
- v (10 uM) (CYP2C9): 0.04 min⁻¹

Compound: O=C1NC(=O)C(c2ccccc2)(c2ccccc2)N1 [Diphenylhydantoin]
- inhibition at 20 min, 10 µM (CYP3A4 [2]; substrate BOMCC): -11%
- inhibition at 40 min, 10 µM (CYP3A4 [2]; substrate BOMCC): 21%
- inhibition at 20 min, 10 µM (CYP3A4 [2]; substrate BOMR): -27%
- inhibition at 40 min, 10 µM (CYP3A4 [2]; substrate BOMR): 24%
- inhibition at 20 min, 10 µM (CYP3A4 [2]; substrate DBOMF): 21%
- inhibition at 40 min, 10 µM (CYP3A4 [2]; substrate DBOMF): 5%

More lines, now with the values ahead:

- v (1.25 uM) (CYP3A4 [1]): 0.2274 min⁻¹
- v (10 uM) (CYP3A4 [1]): 0.961 min⁻¹
- v (1.25 uM) (CYP2C19): 0.179 min⁻¹
- v (10 uM) (CYP2C19): 1.043 min⁻¹
Compound: CCCCCCCCOCOc1ccc2cc(C#N)c(=O)oc2c1 [OOMCC]

- v (1.25 uM) (CYP3A4 [1]): 0.0083 min⁻¹
- v (10 uM) (CYP3A4 [1]): 0.0338 min⁻¹
- v (1.25 uM) (CYP2C19): 0.06 min⁻¹
- v (10 uM) (CYP2C19): 0.062 min⁻¹
- v (1.25 uM) (CYP2D6; — = too low to quantify): 0.03396 min⁻¹
- v (10 uM) (CYP2D6; — = too low to quantify): 0.2146 min⁻¹
Compound: COCOc1ccc2nc3ccc(=O)cc-3oc2c1 [MOMR]

- inhibition at 20 min, 10 µM (CYP3A4 [2]; substrate BOMCC): 44%
- inhibition at 40 min, 10 µM (CYP3A4 [2]; substrate BOMCC): 33%
- inhibition at 20 min, 10 µM (CYP3A4 [2]; substrate BOMR): -19%
- inhibition at 40 min, 10 µM (CYP3A4 [2]; substrate BOMR): 27%
- inhibition at 20 min, 10 µM (CYP3A4 [2]; substrate DBOMF): -9%
- inhibition at 40 min, 10 µM (CYP3A4 [2]; substrate DBOMF): -3%
Compound: O=C1CN(/N=C/c2ccc([N+](=O)[O-])o2)C(=O)N1 [Nitrofurantoin]

- type of kinetics (CYP2C19): Michaelis-Menten
- v (1.25 uM) (CYP2C19): 0.14 min⁻¹
- v (10 uM) (CYP2C19): 0.38 min⁻¹
- type of kinetics (CYP2C9): Michaelis-Menten
- v (1.25 uM) (CYP2C9): 0.01 min⁻¹
- v (10 uM) (CYP2C9): 0.07 min⁻¹
Compound: COCOc1ccc2cc(C#N)c(=O)oc2c1 [MOMCC]

- inhibition at 20 min, 10 µM (CYP3A4 [2]; substrate BOMCC): 7%
- inhibition at 40 min, 10 µM (CYP3A4 [2]; substrate BOMCC): 21%
- inhibition at 20 min, 10 µM (CYP3A4 [2]; substrate BOMR): -5%
- inhibition at 40 min, 10 µM (CYP3A4 [2]; substrate BOMR): 13%
- inhibition at 20 min, 10 µM (CYP3A4 [2]; substrate DBOMF): 1%
- inhibition at 40 min, 10 µM (CYP3A4 [2]; substrate DBOMF): 3%
Compound: C=CCOc1ccccc1OCC(O)CNC(C)C (stereo not shown) [Oxprenolol]

- type of kinetics (CYP2C9): Michaelis-Menten
- v (1.25 uM) (CYP2C9): 0.00 min⁻¹
- v (10 uM) (CYP2C9): 0.07 min⁻¹
- Km (CYP2C9): 14.9 µM
- kcat (CYP2C9): 0.0017 s⁻¹
- type of kinetics (CYP 2B6): notMichaelis-Menten
- v (1.25 uM) (CYP 2B6): 0.54 min⁻¹
- v (10 uM) (CYP 2B6): 0.71 min⁻¹
Compound: COCOc1ccc2c(C(F)(F)F)cc(=O)oc2c1 [MOMFC, 7-Methyloxymethyloxy-4-trifluorocoumarin]
